Experimental data taken from patent US4727061A, “Pharmaceutical preparations having diuretic activity” (Rohm GmbH, priority 1984, dated 1988).

Test system: female Sprague-Dawley rats
Assay: Natriuretic activity in anesthetized, catheterized rats under i.v. saline/fructose infusion (method of Kramer et al.)
Format: in vivo
Conditions: 250 micrograms of peptide per rat
Excerpt: In the test protocol employed, female Sprague-Dawley rats weighing from 206 to 250 g were used as test animals. Before the test, the rats were exposed to a normal diet and had free access to food and water. On the day of the test, the rats were anesthetized with methohexital and catheters were inserted in the aorta and the jugular vein and from there through the abdomen in the bladder.
The animals were then placed into individual cages mounted on a scale. A 0.45% saline solution with 2.5% fructose was then administered to them intravenously at a rate ranging from 33 to 62 microliters per minute so that the body weight remained constant. Two hours after the animals had recovered, 15 minute urine collection periods were initiated and continued throughout the test. The diuretic material to be tested was dissolved (at pH 7.4) in the infusion solution, which contained tris HCl as a buffer. In the case of the fractions characterized by natriuresis, 15 minute urine samples were collected until the sodium excretion had again reached the base line, and the rate of infusion was adjusted so that the body weight remained constant. The arterial blood pressure was monitored throughout the test by means of a pressure measuring apparatus (Statham P-23-Db). The sodium and potassium concentrations in serum and urine were monitored by flame photometry.
250 micrograms of the peptide substance to be tested were administered to each rat.
(2) Sodium excretion in treated rats in micromoles per minute per milligram of administered substance of formula I.
(3) Time of maximum activity (tmax) in minutes.
(4) Increase in natriuresis as quotient F=(Na^+ excretion after treatment)/(Na^+ excretion before treatment).

Gly-Gly
(3) Time of maximum activity (tmax): 1.5 to 2.5 h | (4) Increase in natriuresis as quotient F = (Na+ excretion after treatment)/(Na+ excretion before treatment): 39.8 | (2) Na+ excretion in treated rats (treated rats, in the i.v. infusion solution, pH 7.4, 15 minute urine collections): 14.7 micromoles per minute per mill | (2) Q = K+/Na+ in treated rats (treated rats, urinary K+/Na+ quotient): 0.63
